What was measured:
Lmna^G609G/G609G mice = test: In vivo treatment of progeroid Lmna^G609G/G609G mice; set-up: species or system mouse
Description: Weight was monitored during this time and at the end of the period mice were sacrificed and tissue was harvested to determine if PROTAC administration induced a decrease in the levels of progerin in vivo.
UHPLC with an oven temperature of 31.5 °C. The mass spectrometer ion optics were set in the multiple reaction monitoring mode and the transition selected for quantification […]
For in vivo treatment, compound 2 was administrated at a concentration of 25 mg/kg diluted in sterile corn oil (Sigma-Aldrich) intraperitoneally three times per week starting at the age of 6 weeks. The same quantity of corn oil was injected to control […]
LmnaG609G/G609G and Lmna+/+ mice. […]
stress in mice. The weight of each mouse was registered 2 to 3 times per week during the duration of the treatment.
After 7 weeks of treatment, mice were euthanized by CO2 inhalation. Immediately after sacrifice, tissues were harvested, frozen in dry ice, and kept at -80 °C until use. For immunoblot analysis, a portion of the corresponding tissue was homogenized, and the protein concentration was determined. Samples containing equivalent amounts of total protein were then subjected to polyacrylamide gel electrophoresis and analyzed as […]

[1] = tested on: HGADFN167 Lmna^G608G/G608G fibroblasts; test: Senescence-associated β-galactosidase activity in human progeroid cells; assay type: cell-based; conditions: HGADFN167, 5 µM, 20 days
From the text: FIGURE 6 (A) Representative cropped immunoblots and progerin quantification in human Lmna^G608G/G608G fibroblasts. MW, molecular weight (in kDa) markers. […] (B) PROTAC 2 increases cell proliferation (upper panels) and decreases the number of misshapen nuclei (lower panels). White arrows highlight selected misshapen nuclei. (C) PROTAC 2 decreases senescence‐associated β‐galactosidase (SA‐βgal) activity, interleukin (IL) 6, p16 and p21 senescent markers. Bar graphs show mean±sem of 2 (SA‐βgal and p21) or 3 (IL‐6 and p16) independent experiments performed in triplicate. (D) PROTAC 2 decreases phosphorylated histone 2AX (pH2AX) and increases trimethylated histone 3 (H3K9Me3) levels. (E) PROTAC 2 increases the oxygen consumption rate (OCR), ATP production and the number of healthy mitochondria in human progeroid cells. […] Data were analysed using one‐way ANOVA followed by Dunnett's post–hoc test vs vehicle (panel A) or vs G608G cells (panels B‐E). ^*, p < 0.05; ^**, p < 0.01; ^***, p < 0.001; ^****, p < 0.0001. […]
compound exposure. […] Samples were analysed by electrophoresis in polyacrylamide gels (All Kd SDS-PAGE, BioRad) and the proteins transferred to nitrocellulose membranes (GE Healthcare, Amersham). […]
GAPDH (Cell Signaling, 2118S, 1:5000) and anti-actin (Santa Cruz Biotechnology, sc-376248, 1:500) as antibodies for loading control. […] The bands were quantified by densitometry using the […]

SMILES: CC1(C)Oc2cc3oc(=O)ccc3cc2C[C@@H]1OC(=O)CCCCCNc1cccc2c1C(=O)N(C1CCC(=O)NC1=O)C2=O (some centres unmarked) [compound 2]
- apparent damage or stress in mice (Lmna^G609G/G609G mice; 25 mg/kg i.p. in corn oil three times per week): did not produce any apparent damage or stress in mice
- body weight (Lmna^G609G/G609G mice; Lmna^G609G/G609G mice, 25 mg/kg i.p. three times per week, seven weeks): trend toward improved body weight
- H3K9Me3 levels in vivo (Lmna^G609G/G609G mice; liver, Lmna^G609G/G609G mice, 25 mg/kg i.p. three times per week, 7 weeks): increased levels of H3K9Me3
- progerin levels in vivo (Lmna^G609G/G609G mice; lung, Lmna^G609G/G609G mice, 25 mg/kg i.p. three times per week, 7 weeks): reduced levels of progerin
- SA‐βgal senescent marker [1]: significantly reduced

— PMC13252604, “First Generation Proteolysis Targeting Chimeras (PROTACs) for the Treatment of Progeria” (Advanced Science, 2026)
